This passage reports IC50 results from article PMC2213507 (The Journal of Experimental Medicine, 2000).

Peptide text beside a SMILES is read from it.

This assay deals with HLA-A*0201 (Homo sapiens, UniProt P04439, D140Y/D185E/D98H/E176V/E277Q/G131W/G231S/I119V/I121R/I166T/I218V/L300P/L318F/N151K/N90K/P208A/P217A/Q86G/Q94H/R138H/R169H/T345S). Kind of assay: HLA-A*0201 peptide-binding assay.
Consider `CC(C)C[C@H](NC(=O)[C@H](CO)NC(=O)[C@H](CCCNC(=N)N)NC(=O)[C@@H](NC(=O)[C@H](Cc1ccc(O)cc1)NC(=O)[C@H](COP(=O)(O)O)NC(=O)[C@H](CC(=O)O)NC(=O)[C@H](CC(C)C)NC(=O)CN)C(C)C)C(=O)O` [GLDpSYVRSL] (HELM PEPTIDE1{G.L.D.[O=C([C@H](COP(=O)(O)O)N[*:1])[*:2]].Y.V.R.S.L}$$$$V2.0), for which the IC50 (as a rule, the concentration that gives 50% inhibition) was determined as 58 nM.
Compound `CC(C)C[C@H](NC(=O)[C@H](CO)NC(=O)[C@H](CCCNC(=N)N)NC(=O)[C@@H](NC(=O)[C@H](Cc1ccc(O)cc1)NC(=O)[C@@H](NC(=O)[C@H](CC(=O)O)NC(=O)[C@H](CC(C)C)NC(=O)CN)[C@@H](C)OP(=O)(O)O)C(C)C)C(=O)O` [GLDpTYVRSL] (HELM PEPTIDE1{G.L.D.[C[C@@H](OP(=O)(O)O)[C@H](N[*:1])C(=O)[*:2]].Y.V.R.S.L}$$$$V2.0) returned an IC50 of 67 nM.
Compound `CC(C)C[C@H](NC(=O)[C@H](CO)NC(=O)[C@H](CCCNC(=N)N)NC(=O)[C@@H](NC(=O)[C@H](Cc1ccc(O)cc1)NC(=O)[C@H](Cc1ccc(OP(=O)(O)O)cc1)NC(=O)[C@H](CC(=O)O)NC(=O)[C@H](CC(C)C)NC(=O)CN)C(C)C)C(=O)O` [GLDpYYVRSL] (HELM PEPTIDE1{G.L.D.[O=C([C@H](Cc1ccc(OP(=O)(O)O)cc1)N[*:1])[*:2]].Y.V.R.S.L}$$$$V2.0) gave a half-inhibitory concentration (IC50) of 211 nM.
